Data as given in PubChem BioAssay AID1963854 (Molecular Pharmacology Branch, DTP, NCI, 2024).

Tested on: 186277-243-T-J2-PDC complex spheroid viability
Assay: Anticancer human tumor 186277-243-T-J2-PDC patient-derived colon adenocarcinoma cell line growth inhibition [POLQ]
Details: for IC50: curve of first compound; for viability, T/C: stronger effect = lower value
Method in brief: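 Growth inhibition in 3D: complex spheroids (tumor PDC, HUVEC, MSC) treated with POLQ inhibitor combinations; where Cmax unknown, highest tested concentration 10 microM, except SN-38 at 1 microM.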
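Further: spheroids exposed to compounds for seven days.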
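Wherever viability, T/C is given: 100% = DMSO vehicle control viability.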

Nc1ccn(C2OC(CO)C(O)C2(F)F)c(=O)n1 (configuration not stated) + Nc1ccc(C#CCN(C(=O)Cc2ncc(C(F)(F)F)cc2C(F)(F)F)c2ccc(F)cc2)nn1
IC50 (second compound 0.0316 µM): < 31.6 nM
IC50 (second compound 0.1 µM): < 31.6 nM
IC50 (second compound 0.316 µM): < 31.6 nM
IC50 (second compound 1 µM): < 31.6 nM
IC50 (second compound 3.16 µM): < 31.6 nM
IC50 (second compound 10 µM): < 31.6 nM
viability, T/C (second compound 0.0316 µM, first compound 0.0316 µM): 14.7%
viability, T/C (second compound 0.0316 µM, first compound 0.1 µM): 11.5%
viability, T/C (second compound 0.0316 µM, first compound 0.316 µM): 11.6%
viability, T/C (second compound 0.0316 µM, first compound 1 µM): 14%
viability, T/C (second compound 0.0316 µM, first compound 3.16 µM): 14%
viability, T/C (second compound 0.0316 µM, first compound 10 µM): 13.6%
viability, T/C (second compound 0.1 µM, first compound 0.0316 µM): 13.9%
viability, T/C (second compound 0.1 µM, first compound 0.1 µM): 12.2%
viability, T/C (second compound 0.1 µM, first compound 0.316 µM): 12.4%
viability, T/C (second compound 0.1 µM, first compound 1 µM): 13.2%
viability, T/C (second compound 0.1 µM, first compound 3.16 µM): 15%
viability, T/C (second compound 0.1 µM, first compound 10 µM): 13.8%
viability, T/C (second compound 0.316 µM, first compound 0.0316 µM): 14.4%
viability, T/C (second compound 0.316 µM, first compound 0.1 µM): 12.9%
viability, T/C (second compound 0.316 µM, first compound 0.316 µM): 12.7%
viability, T/C (second compound 0.316 µM, first compound 1 µM): 13.4%
viability, T/C (second compound 0.316 µM, first compound 3.16 µM): 14.1%
viability, T/C (second compound 0.316 µM, first compound 10 µM): 15.2%
viability, T/C (second compound 1 µM, first compound 0.0316 µM): 12.8%
viability, T/C (second compound 1 µM, first compound 0.1 µM): 12%
viability, T/C (second compound 1 µM, first compound 0.316 µM): 11.7%
viability, T/C (second compound 1 µM, first compound 1 µM): 13%
viability, T/C (second compound 1 µM, first compound 3.16 µM): 14.8%
viability, T/C (second compound 1 µM, first compound 10 µM): 14.3%
viability, T/C (second compound 3.16 µM, first compound 0.0316 µM): 13%
viability, T/C (second compound 3.16 µM, first compound 0.1 µM): 13.9%
viability, T/C (second compound 3.16 µM, first compound 0.316 µM): 10.6%
viability, T/C (second compound 3.16 µM, first compound 1 µM): 11.9%
viability, T/C (second compound 3.16 µM, first compound 3.16 µM): 15.2%
viability, T/C (second compound 3.16 µM, first compound 10 µM): 15.3%
viability, T/C (second compound 10 µM, first compound 0.0316 µM): 12.5%
viability, T/C (second compound 10 µM, first compound 0.1 µM): 11.3%
viability, T/C (second compound 10 µM, first compound 0.316 µM): 11.5%
viability, T/C (second compound 10 µM, first compound 1 µM): 11.5%
viability, T/C (second compound 10 µM, first compound 3.16 µM): 12.9%
viability, T/C (second compound 10 µM, first compound 10 µM): 13.9%
